Data reported in patent US9636335B2, “Heteroaryl compounds as 5-HT4 receptor ligands” (Suven Life Sciences Ltd, priority 2011, dated 2017).
Structures can show the parent of a compound that is named as a salt.

Tests used:
[1] = biological target: recombinant human 5-HT4 receptor (Homo sapiens (Human), UniProt Q13639); assay: Determination of EC50 values for 5-HT4 receptor (CHO cells, pCRE-Luc reporter); type: cell-based; settings: CHO cells expressing human 5-HT4 receptor, luciferase activity, 4 hours incubation
Sequence of recombinant human 5-HT4 receptor (Q13639 whole entry): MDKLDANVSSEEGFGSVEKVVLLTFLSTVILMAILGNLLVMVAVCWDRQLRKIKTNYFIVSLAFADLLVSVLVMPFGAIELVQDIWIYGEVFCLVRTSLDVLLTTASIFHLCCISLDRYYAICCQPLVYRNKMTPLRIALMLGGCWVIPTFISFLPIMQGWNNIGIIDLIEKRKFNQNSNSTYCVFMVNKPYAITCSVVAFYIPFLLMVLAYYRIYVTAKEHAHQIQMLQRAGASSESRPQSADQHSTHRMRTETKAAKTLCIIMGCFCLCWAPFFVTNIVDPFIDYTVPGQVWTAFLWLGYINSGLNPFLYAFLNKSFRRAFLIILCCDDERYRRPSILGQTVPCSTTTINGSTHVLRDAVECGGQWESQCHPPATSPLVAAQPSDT
Protocol: A stable CHO cell line expressing recombinant human 5-HT4 receptor and pCRE-Luc reporter system was used for cell-based assay. The assay offers a non-radioactive based approach to determine binding of a compound to GPCRs. In this specific assay, the level of intracellular cyclic AMP which is modulated by activation or inhibition of the receptor is measured. The recombinant cells harbor luciferase reporter gene under the control of cAMP response element.
The above cells were grown in 96 well clear bottom white plates in Hams F12 medium containing 10% fetal bovine serum (FBS). Prior to the addition of compounds or standard agonist, cells were serum starved overnight. Increasing concentrations of test compounds were added in OptiMEM medium to the cells. The incubation was continued at 37° C. in CO2 incubator for 4 hours. Medium was removed and cells were washed with phosphate buffered saline. The cells were lysed and luciferase activity was measured in a Luminometer. Luminescence units were plotted against the compound concentrations using Graphpad software.

[2] = Rodent pharmacokinetic study; type: in vivo, Male Wister rats; settings: plasma
Protocol: Three to five animals were housed in each cage. […] Animals were fasted over night before oral dosing (p.o) and food pellets were allowed 2 hours post dosing, whereas intravenous dosing food and water were provided as ad libitum. Three rats were dosed with compounds of formula (I) (10 mg/kg) orally and intravenously (05 mg/kg).
At each time point blood was collected through jugular vein and immediately replenish with an equivalent volume of normal saline from freely moving rats. Collected blood was transferred into a labeled eppendr off containing 10 μL of heparin as anticoagulant. Typically blood samples were collected as following time points: Pre dose, 0.08 (only i.v.), 0.25, 0.5, 1, 2, 4, 6, 8, and 24 hours post dose (n=3). Blood was centrifuged at 4000 rpm for 10 minutes. Plasma was prepared and stored frozen at −20° C. until analysis.
Pharmacokinetic parameters Cmax, Tmax, AUCt, T1/2 and Bioavailability were calculated by non-compartmental model using standard non-compartmental model by using WinNonLin 5.0.1 or Phoenix WinNonlin 6.2 version Software package.

[3] = Rodent brain penetration study; settings: male, Wistar, rat, po, 10 mg/kg
Protocol: Three animals were housed in each cage. Animals were given water and food ad libitum throughout the experiment, and maintained on a 12 hours light/dark cycle.
Brain penetration was determined in discrete manner in rats. […] After acclimatization the rats were grouped according to the weight in each group, 3 animals were kept in individual cage and allowed free access to food and water. At each time point (0.50, 1, and 2 hours) n=3 animals were used.
The compounds of formula (I) was suitably preformulated and administered orally at (free base equivalent) 10 mg/kg. Blood samples were removed via, cardiac puncture by using isoflurane anesthesia the animals were sacrificed to collect brain tissue. […] The concentrations of the NCE compound in plasma and Brain were determined using LC-MS/MS method.
Extent of brain-plasma ratio was calculated (Cb/Cp).

[4] = tested on: Male Wister rats; assay: Object recognition task model; type: in vivo; settings: p.o., rat
Protocol: (§1) The cognition enhancing properties of compounds of this invention were estimated by using this model.
Male Wister rats (230-280 grams) were used as experimental animals. Four animals were housed in each cage. […] Also the rats were habituated to individual arenas for 1 hour in the absence of any objects.
One group of 12 rats received vehicle (1 mL/Kg) orally and another set of animals received compound of the formula (I) either orally or i.p., before one hour of the familiar (T1) and choice trial (T2).
The experiment was carried out in a 50×50×50 cm open field made up of acrylic. In the familiarization phase, (T1), the rats were placed individually in the open field for 3 minutes, in which two identical objects (plastic bottles, 12.5 cm height×5.5 cm diameter) covered in yellow masking tape alone (a1 and a2) were positioned in two adjacent corners, 10 cms from the walls. After 24 hours of the (T1) trial for long-term memory test, the same rats were placed in the same arena as they were placed in T1 trial. Choice phase (T2) rats were allowed to explore the open field for 3 minutes in presence of one familiar object (a3) and one novel object (b) (Amber color glass bottle, 12 cm high and 5 cm in diameter). Familiar objects presented similar textures, colors and sizes. During the T1 and T2 trial, explorations of each object (defined as sniffing, licking, chewing or having moving vibrissae whilst directing the nose towards the object at a distance of less than 1 cm) were recorded separately by stopwatch. […] T1 is the total time spent exploring the familiar objects (a1+a2). T2 is the total time spent exploring the familiar object and novel object (a3+b).

[5] = tested on: rats; assay: Radial arm maze, reversal of scopolamine induced amnesia; type: in vivo; settings: p.o., rat
Text: as §1

[6] = male, Wistar, rat, po, 10 mg/kg
[7] = Wistar/Male rat, 5 mg/kg, intravenous (bolus)
[8] = Wistar/Male rat, 10 mg/kg oral vs 5 mg/kg intravenous
[9] = Wistar/Male rat, 10 mg/kg, oral (gavage)

| EC50 [1] [nM] | AUC(0-t) [2, 7] [ng·h/mL] | Cmax [2, 7] [ng/mL] | Tmax [2, 7] [min] | half-life [2, 7] [min] | bioavailability [2, 8] [%] | AUC(0-t) [2, 9] [ng·h/mL] | Cmax [2, 9] [ng/mL] | Tmax [2, 9] [min] | half-life [2, 9] [min] | Compound | Kp ([3]; brain homogenate and plasma) | Exploration time mean ± S.E.M, Familiar object ([4]; 3 mg/kg) [s] | Exploration time mean ± S.E.M, Novel object ([4]; 3 mg/kg) [s] | Inference ([4]; 3 mg/kg) | other results |
| --- | --- | --- | --- | --- | --- | --- | --- | --- | --- | --- | --- | --- | --- | --- | --- |
| 6.8 | 2370 ± 90 | 1860 ± 115 | 4.8 | 133 ± 13.8 | 101 ± 1 | 4814 ± 30 | 1760 ± 264 | 30 | 88.8 ± 10.8 | CCOC(=O)N1CCC(N2CCC(c3nnc(-c4cc(Cl)c(N)c5c4OCCC5)o3)CC2)CC1 [Example 19, 4-[5-(5-Amino-6-chloro-chroman-8-yl)-[1,3,4]oxadiazol-2-yl]-[1,4′]bipiperidinyl-1′-carboxylic acid ethyl ester] | – | – | – | – | Exploration time mean ± S.E.M, Familiar object ([4]; 10 mg/kg): 7.19 ± 0.65 s; Exploration time mean ± S.E.M, Novel object ([4]; 10 mg/kg): 13.21 ± 2.1 s; Inference ([4]; 10 mg/kg): Active |
| 15.6 | 1320 ± 527 | 1280 ± 239 | 4.8 | 61.8 ± 8.4 | 72 ± 22 | 1760 ± 89 | 918 ± 46 | 19.8 ± 8.4 | 60.6 ± 4.8 | COCCN1CCC(c2nnc(-c3cc(Cl)c(N)c4c3OCCC4)o2)CC1 [Example 8, 6-Chloro-8-{5-[1-(2-methoxy-ethyl)-piperidin-4-yl]-[1,3,4]oxadiazol-2-yl}-chroman-5-ylamine] | 0.56 ± 0.08 | 10.45 ± 1.162 | 17.59 ± 2.95 | Active | – |
| 1.3 | 773 ± 45 | 783 ± 124 | 4.8 | 73.2 ± 15.6 | 42 ± 10 | 645 ± 136 | 513 ± 125 | 15 | 57.6 ± 6.6 | Nc1c(Cl)cc(-c2nnc(C3CCN(C4CCC4)CC3)o2)c2c1CCCO2 [Example 14, 6-Chloro-8-[5-(1-cyclobutyl-piperidin-4-yl)-[1,3,4]oxadiazol-2-yl]-chroman-5-ylamine] | 2.24 ± 0.09 | – | – | – | Exploration time mean ± S.E.M, Familiar object ([4]; 1 mg/kg): 5.06 ± 1.32 s; Exploration time mean ± S.E.M, Novel object ([4]; 1 mg/kg): 12.68 ± 1.14 s; Inference ([4]; 1 mg/kg): Active; Reversal of Scopolamine Induced amnesia - Effective dose range [5]: 1-10 mg/kg, p.o. |
| – | – | – | – | – | – | – | – | – | – | CC(C)n1nc(-c2nnc(C3CCN(C4CCC4)CC3)o2)c2ccccc21 [Example 37, 3-[5-(1-Cyclobutyl-piperidin-4-yl)-[1,3,4]oxadiazol-2-yl]-1-isopropyl-1H-indazole] | – | – | – | – | Kp ([3]; in vivo): 5.68 ± 1.74 |
| – | – | – | – | – | – | – | – | – | – | CC(C)n1nc(-c2nnc(C3CCN(C4CCOCC4)CC3)o2)c2ccccc21 [Example 48, 1-Isopropyl-3-{5-[1-(tetrahydro-pyran-4-yl)-piperidin-4-yl]-[1,3,4]oxadiazol-2-yl}-1H-indazole oxalate salt] | – | – | – | – | Kp ([3]; in vivo): 2.55 ± 0.32 |
| 13.3 | – | – | – | – | – | – | – | – | – | Nc1c(Cl)cc(-c2nnc(C3CCN(C4CCC4)CC3)o2)c2c1OCCO2 [Example 16, 6-Chloro-8-[5-(1-cyclobutyl-piperidin-4-yl)-[1,3,4]oxadiazol-2-yl]-2,3-dihydro-benzo[1,4]dioxin-5-ylamine] | – | – | – | – | Exploration time mean ± S.E.M, Familiar object ([4]; 10 mg/kg): 8.03 ± 1.58 s; Exploration time mean ± S.E.M, Novel object ([4]; 10 mg/kg): 13.94 ± 1.76 s; Inference ([4]; 10 mg/kg): Active |
| 2.4 | 836 ± 374 | 792 ± 111 | 4.8 | 82.8 ± 39.6 | 66 ± 21 | 1210 ± 941 | 412 ± 177 | 40.2 ± 14.4 | 89.4 ± 38.4 | CC(C)CCN1CCC(c2nnc(-c3cc(Cl)c(N)c4c3OCCC4)o2)CC1 [Example 9, 6-Chloro-8-{5-[1-(3-methyl-butyl)-piperidin-4-yl]-[1,3,4]oxadiazol-2-yl}-chroman-5-ylamine] | – | 11.21 ± 2.18 | 16.47 ± 1.18 | Active | – |

| Compound | EC50 [1] [nM] | AUC(0-t) [2, 7] [ng·h/mL] | Cmax [2, 7] [ng/mL] | Tmax [2, 7] [min] | half-life [2, 7] [min] | bioavailability [2, 8] [%] | AUC(0-t) [2, 9] [ng·h/mL] | Cmax [2, 9] [ng/mL] | Tmax [2, 9] [min] | half-life [2, 9] [min] | Kp ([3]; brain homogenate and plasma) | Exploration time mean ± S.E.M, Familiar object ([4]; 3 mg/kg) [s] | Exploration time mean ± S.E.M, Novel object ([4]; 3 mg/kg) [s] | Inference ([4]; 3 mg/kg) | other results |
| --- | --- | --- | --- | --- | --- | --- | --- | --- | --- | --- | --- | --- | --- | --- | --- |
| Nc1c(Cl)cc(-c2nnc(CC3CCN(C4CCCC4)CC3)o2)c2c1CCCO2.O=C(O)C(=O)O [Example 21, 6-Chloro-8-[5-(1-cyclopentyl-piperidin-4-ylmethyl)-[1,3,4]oxadiazol-2-yl]-chroman-5-ylamine oxalate salt] | 71.2 | – | – | – | – | – | – | – | – | – | 0.62 ± 0.05 | – | – | – | AUC(0-t) ([2]; male, Wistar, rat, iv, 5 mg/kg): 876 ± 65 ng·h/mL; Cmax ([2]; male, Wistar, rat, iv, 5 mg/kg): 750 ± 14 ng/mL; Tmax ([2]; male, Wistar, rat, iv, 5 mg/kg): 4.8 min; half-life ([2]; male, Wistar, rat, iv, 5 mg/kg): 107 ± 25.8 min; AUC(0-t) [2, 6]: 1490 ± 72 ng·h/mL; Cmax [2, 6]: 553 ± 53 ng/mL; Tmax [2, 6]: 25.2 ± 7.2 min; bioavailability [2, 6]: 85 ± 4%; half-life [2, 6]: 94.2 ± 6.6 min |
| Nc1c(Cl)cc(-c2nnc(CCCN3CCCCC3)o2)c2c1CCCO2.O=C(O)C(O)C(O)C(=O)O [Example 20, 6-Chloro-8-[5-(3-piperidin-1-yl-propyl)-[1,3,4]oxadiazol-2-yl]-chroman-5-ylamine tartarate salt] | 104 | 867 ± 173 | 976 ± 305 | 4.8 | 48 ± 3.6 | 46 ± 9 | 790 ± 153 | 602 ± 35 | 15 | 61.8 ± 1.2 | 0.5 ± 0.07 | 4.69 ± 0.79 | 11.04 ± 1.33 | Active | – |
| Nc1c(Cl)cc(-c2nnc(C3CCN(C4CC4)CC3)o2)c2c1CCCO2.Nc1c(Cl)cc(-c2nnc(C3CCN(C4CC4)CC3)o2)c2c1CCCO2.O=C(O)/C=C/C(=O)O [Example 1, 6-Chloro-8-[5-(1-cyclopropyl-piperidin-4-yl)-[1,3,4]oxadiazol-2-yl]-chroman-5-ylamine hemi fumarate] | 28.5 | – | – | – | – | – | – | – | – | – | – | 5.08 ± 0.1 | 13.80 ± 2.20 | Active | – |
